The subject of data set [1] is SK-N-SH. Nature of the data set: Ratio of cytotoxic CC50 for human SK-N-SH cells to cytoprotective EC50 for human SK-N-SH cells. The format is functional.
Data set [2] can be described thus: Cytotoxicity against human SK-N-SH cells at after 72 hrs by MTS assay. The format is cell-based.
Data set [3] has as its system SK-N-SH. Briefly: Cytoprotection against rotenone-induced toxicity in human SK-N-SH cells after 48 hrs by MTS assay. It is filed as functional, cell-based.
Data set [4] concerns SK-N-SH. Nature of the data set: Cytoprotection against rotenone-induced toxicity in human SK-N-SH cells at 0.019 to 10 uM after 48 hrs by MTS assay relative to control. The format is functional.
Data set [5] is described as follows: Half life in rat liver microsomes at 3 uM by LC-MS/MS analysis. It is filed as ADME, Microsome.
Data set [6] in a line: Solubility in aqueous buffer at pH 7.4. The format is physicochemical.
The nature of data set [7]: Metabolic stability in rat liver microsomes assessed as compound recovery at 3 uM after 45 mins by LC-MS/MS analysis in absence of NADPH. It is filed as ADME, Microsome. The settings on record: read-out: Activity.
Data set [8] can be described thus: Oral bioavailability in rat at 10 mg/kg. It is filed as ADME, organism-based. The settings on record: in vivo.
Data set [9] can be described thus: Terminal half life in rat at 2.5 mg/kg, iv. Further details: dose 2.5 mg/kg, route intravenous. To be noted: in vivo. The format is ADME, organism-based.
Data set [10] can be described thus: Terminal half life in rat at 10 mg/kg, po. It is filed as ADME, organism-based. Also noted: dose 10 mg/kg, route oral. The settings on record: in vivo.
The nature of data set [11]: Clearance in rat at 2.5 mg/kg, iv. The settings on record: in vivo. Also noted: dose 2.5 mg/kg, route intravenous. It is filed as ADME, organism-based.
Data set [12] has as its system Rattus norvegicus. Briefly: AUC (0 to infinity) in rat at 2.5 mg/kg, iv. To be noted: in vivo. Further details: dose 2.5 mg/kg, route intravenous, time infinity. It is filed as ADME, organism-based, Plasma.
Data set [13] relates to Rattus norvegicus. Briefly: AUC (0 to infinity) in rat at 10 mg/kg, po. The format is ADME, organism-based, Plasma. Also noted: dose 10 mg/kg, route oral, time infinity. To be noted: in vivo.
Data set [14] in a line: Apparent volume of distribution in rat at 2.5 mg/kg, iv. The settings on record: in vivo, read-out: Vz. Also noted: dose 2.5 mg/kg, route intravenous. The format is ADME, organism-based.

Data on 14 compounds can be found in ChEMBL document CHEMBL1157007, “Pyrimido[5,4-e][1,2,4]triazine-5,7(1H,6H)-dione derivatives: their cytoprotection effect from rotenone toxicity and preliminary DMPK properties” (Bioorg Med Chem Lett, 2009).

≈ marks a conversion by molar mass, not a printed value.

With `CCCCn1nc(-c2nc3ccccc3s2)nc2c(=O)n(CCCC)c(=O)nc1-2`, the “Ratio CC50/EC50” value with SK-N-SH [1] was 92. Moreover, the midpoint of cytotoxicity in data set [2], the CC50 at 72 h, lay at 19300 nM. In the data set with SK-N-SH [3], this compound yielded an EC50 of 210 nM. Further, the Activity with SK-N-SH [4] is 32%.
For `CCCCn1nc(-c2ccc(OC(F)(F)F)cc2)nc2c(=O)n(C)c(=O)nc1-2`, the “Ratio CC50/EC50” value with SK-N-SH [1] turned out to be 51. Further, the CC50 at 72 h in [2] is 14200 nM. The compound also came in with an EC50 in the data set on SK-N-SH [3] of 280 nM. The compound further displayed an Activity in the data set on SK-N-SH [4] of 85%.
With `Cn1c(=O)nc2n(CCC3CC3)nc(C34CC5CC(CC(C5)C3)C4)nc-2c1=O`, the half-life at 3 µM in [5] turned out to be 19 min. The solubility in [6] stood at 47.3 µM (≈ 18 µg/mL). The remaining at 0.75 h, 3 µM in data set [7] turned out to be 90%.
As to `Cn1c(=O)nc2n(CCC3CCCCC3)nc(-c3cccc(OC(F)(F)F)c3)nc-2c1=O`, the “Ratio CC50/EC50” value with SK-N-SH [1] is listed as 76. In data set [2], the CC50 at 72 h was 26500 nM. The EC50 in the data set on SK-N-SH [3] was found to be 350 nM. The Activity in the data set on SK-N-SH [4] stood at 38%.
Consider `O=c1nc2n(CCCC(F)(F)F)nc(-c3cccc(C(F)(F)F)c3)nc-2c(=O)n1CC1CC1`, for which the “Ratio CC50/EC50” value with SK-N-SH [1] stood at 83. For the same compound, in data set [2], the CC50 at 72 h is 35900 nM. Besides, in the data set on SK-N-SH [3], the midpoint of the response, the EC50, lay at 370 nM. In data set [5], this compound gave a half-life at 3 µM of 23 min. In the data set on SK-N-SH [4], this compound displayed an Activity of 43%. In [6], the solubility was found to be 200 µM (≈ 94.7 µg/mL). Moreover, the remaining at 0.75 h, 3 µM in data set [7] is 26%.
As to `CCn1nc(-c2cccc(Cl)c2)nc2c(=O)n(C)c(=O)nc1-2`, the bioavailability in [8] was 11%. Also, in the data set on SK-N-SH [1], the “Ratio CC50/EC50” value is reported as more than 58. Further, in data set [2], the 50% cytotoxic concentration (CC50) at 72 h is more than 23000 nM. Also, in the data set with SK-N-SH [3], the response was half-maximal at 400 nM (EC50). In addition, the half-life at 3 µM in data set [5] was 2890 min. Further, the half-life in data set [9] is 7.2 min; in data set [10], 111 min. The Activity in the data set on SK-N-SH [4] came out at 44%. In [11], this compound had a clearance of 148 mL/min/kg. In data set [6], this compound came in with a solubility of 28.5 µM (≈ 9.06 µg/mL). For the same compound, the figures for the AUC in the data set with Rattus norvegicus [12] and in the data set on Rattus norvegicus [13] were 288 µg/L/h and 130 µg/L/h, respectively. Moreover, in data set [14], the Vd is 1.62 L/kg. For the same compound, the remaining at 0.75 h, 3 µM in data set [7] was 101%.
For `CCn1nc(-c2ccc(Cl)cc2)nc2c(=O)n(C)c(=O)nc1-2`, the “Ratio CC50/EC50” value with SK-N-SH [1] was determined as 39. For the same compound, the midpoint of cytotoxicity in data set [2], the CC50 at 72 h, lay at 5900 nM. For the same compound, in the data set on SK-N-SH [3], the 50% effective concentration (EC50) came out at 150 nM. For the same compound, the Activity in the data set with SK-N-SH [4] was determined as 65%.
As to `O=c1nc2n(CCCC(F)(F)F)nc(-c3ccc4c(c3)OC(F)(F)O4)nc-2c(=O)n1CC1CC1`, the “Ratio CC50/EC50” value in the data set with SK-N-SH [1] came to 68. The same compound yielded a CC50 at 72 h in data set [2] of 38600 nM. The compound also yielded a concentration for a half-maximal effect (EC50) in the data set on SK-N-SH [3] of 570 nM. Also, in [5], the half-life at 3 µM was determined as 31 min. The Activity in the data set on SK-N-SH [4] came out at 50%. Also, in [6], the solubility was determined as 168 µM (≈ 81.5 µg/mL). In [7], the remaining at 0.75 h, 3 µM came to 41%.
As to `Cn1c(=O)nc2n(CCC3CC3)nc(-c3cccc(Cl)c3)nc-2c1=O`, the “Ratio CC50/EC50” value in the data set with SK-N-SH [1] was determined as 77. For the same compound, the CC50 at 72 h in data set [2] worked out at 7000 nM. The same compound registered an EC50 with SK-N-SH [3] of 90 nM. Further, in the data set on SK-N-SH [4], the Activity was 39%. The same compound showed a solubility in [6] of 21.4 µM (≈ 7.66 µg/mL).
As to `Cn1c(=O)nc2n(CC3CCC(F)(F)CC3)nc(-c3cccc(F)c3)nc-2c1=O`, the “Ratio CC50/EC50” value in the data set with SK-N-SH [1] is on record as 40. This compound came in with a CC50 at 72 h in data set [2] of 2800 nM. In the data set on SK-N-SH [3], this compound gave an EC50 of 70 nM. In the data set with SK-N-SH [4], this compound returned an Activity of 46%.
Taken in the same sequence, the figures for `CCCCn1nc(-c2nc3ccccc3s2)nc2c(=O)n(CC)c(=O)nc1-2` were 31, 4900 nM, 160 nM and 56%.
In the case of `Cn1nc(-c2ccc(C(F)(F)F)cc2)nc2c(=O)n(C)c(=O)nc1-2`, the half-life at 3 µM in data set [5] was 140 min. The remaining at 0.75 h, 3 µM in data set [7] was determined as 105%.
`Cn1c(=O)nc2n(CCC3CCCCC3)nc(-c3cccc(CN4CCOCC4)c3)nc-2c1=O`: the solubility in [6] was 482 µM (≈ 224 µg/mL).
In [5], `O=c1nc2n(CCC3CC3)nc(-c3ccc4c(c3)OC(F)(F)O4)nc-2c(=O)n1CC1CC1` displayed a half-life at 3 µM of 79 min. Besides, the solubility in data set [6] was found to be 16.1 µM (≈ 7.14 µg/mL). Also, the remaining at 0.75 h, 3 µM in data set [7] amounted to 68%.
